Results published in PubChem BioAssay AID330 (DTP/NCI, 2004).
Where “and” joins values, the source holds several entries; their conditions need not be identical. Equal values may be shown once. Inconclusive results and toxic doses are left out. How the source made its calls: active means survival T/C of 150% or more; inactive means T/C below 125% in these data.

Tested on: P388 leukemia ip, CD2F1 mice, survival T/C
Test: NCI In Vivo Anticancer Drug Screen. Data for tumor model P388 Leukemia (intraperitoneal) in CD2F1 (CDF1) mice
Conditions: endpoint: median survival time, higher = longer survival
Outline: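 Mice carrying the transplanted tumor received test compound or vehicle. Survival was recorded in each group, and the value is the treated-group measurement divided by that of the vehicle-treated control group.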

[1] = dose: 50.0 mg/kg/injection, schedule: Q01DX005 (ip), vehicle: saline with Tween-80
[2] = dose: 100.0 mg/kg/injection, schedule: Q01DX005 (ip), vehicle: saline with Tween-80
[3] = dose: 200.0 mg/kg/injection, schedule: Q01DX005 (ip), vehicle: saline with Tween-80
[4] = dose: 6.25 mg/kg/injection, schedule: Q01DX009 (ip), vehicle: water
[5] = dose: 12.5 mg/kg/injection, schedule: Q01DX009 (ip), vehicle: water
[6] = dose: 25.0 mg/kg/injection, schedule: Q01DX009 (ip), vehicle: water
[7] = dose: 50.0 mg/kg/injection, schedule: Q01DX009 (ip), vehicle: water
[8] = dose: 100.0 mg/kg/injection, schedule: Q01DX009 (ip), vehicle: water
[9] = dose: 100.0 mg/kg/injection, schedule: Q01DX009 (ip), vehicle: saline with Tween-80
[10] = dose: 50.0 mg/kg/injection, schedule: Q01DX005 (ip), vehicle: saline
[11] = dose: 100.0 mg/kg/injection, schedule: Q01DX005 (ip), vehicle: saline
[12] = dose: 200.0 mg/kg/injection, schedule: Q01DX005 (ip), vehicle: saline
[13] = dose: 100.0 mg/kg/injection, schedule: Q04DX002 (ip), vehicle: Klucel (hydroxypropylcellulose) (HPC)
[14] = dose: 200.0 mg/kg/injection, schedule: Q04DX002 (ip), vehicle: Klucel (hydroxypropylcellulose) (HPC)
[15] = dose: 400.0 mg/kg/injection, schedule: Q04DX002 (ip), vehicle: Klucel (hydroxypropylcellulose) (HPC)
[16] = dose: 60.0 mg/kg/injection, schedule: Q01DX005 (ip), vehicle: saline with Tween-80
[17] = dose: 120.0 mg/kg/injection, schedule: Q01DX005 (ip), vehicle: saline with Tween-80
[18] = dose: 240.0 mg/kg/injection, schedule: Q01DX005 (ip), vehicle: saline with Tween-80

Measured: T/C

CCCCNCC(=O)Nc1cc(NC(=O)CNCCCC)c(C)c(NC(=O)CNCCCC)c1
inactive: [1] 100 % of control | [2] 104 % of control | [3] 100 % of control

Clc1cc2c(nn1)-c1ccccc1C2
inactive: [1] 100 % of control | [2] 105 % of control | [3] 100 % of control

CCOC(OCC)/C(=C\N(C)C)N=C(C#N)C#N
inactive: [1] 113 % of control | [2] 111 % of control

CC1(CC(C)(C)C2CCCCC2)OCCO1
inactive: [4] 104 % of control | [5] 108 % of control | [6] 107 % of control | [7] 109 % of control | [8] 90 % of control

CC1CN(Cc2ccccc2O)CC(C)N1 (stereo not drawn)
inactive: [4] 90 % of control | [5] 93 % of control | [6] 106 % of control | [7] 91 % of control | [8] 94 % of control

Cc1ccc(N2C(=O)CC3(CCCCC3)C2=O)c(C)c1
inactive: dose: 50.0 mg/kg/injection, schedule: Q01DX009 (ip), vehicle: Klucel (hydroxypropylcellulose) (HPC) 105 % of control | dose: 100.0 mg/kg/injection, schedule: Q01DX009 (ip), vehicle: Klucel (hydroxypropylcellulose) (HPC) 109 % of control | dose: 200.0 mg/kg/injection, schedule: Q01DX009 (ip), vehicle: Klucel (hydroxypropylcellulose) (HPC) 103 % of control

C=CC12COC(=O)CC1CCC(=O)C2 (stereo not drawn)
inactive: dose: 100.0 mg/kg/injection, schedule: Q04DX003 (ip), vehicle: Klucel (hydroxypropylcellulose) (HPC) 99 % of control | dose: 200.0 mg/kg/injection, schedule: Q04DX003 (ip), vehicle: Klucel (hydroxypropylcellulose) (HPC) 100 % of control

CCOC(=O)C(N)CSCSC (stereo not drawn)
inactive: [7] 88 % of control | [8] 97 % of control | dose: 200.0 mg/kg/injection, schedule: Q01DX009 (ip), vehicle: water 86 % of control | dose: 400.0 mg/kg/injection, schedule: Q01DX009 (ip), vehicle: water 94 % of control

Cc1ccc(S(=O)(=O)CC(=O)c2ccc(Br)cc2)cc1
inactive: [9] 92 % of control

N=c1ccn(O)cc1
inactive: dose: 6.25 mg/kg/injection, schedule: Q01DX005 (ip), vehicle: saline 101 % of control | dose: 12.5 mg/kg/injection, schedule: Q01DX005 (ip), vehicle: saline 107 % of control | dose: 12.5 mg/kg/injection, schedule: Q01DX009 (ip), vehicle: saline 111 % of control | dose: 25.0 mg/kg/injection, schedule: Q01DX005 (ip), vehicle: saline 102 % of control | dose: 25.0 mg/kg/injection, schedule: Q01DX009 (ip), vehicle: saline 111 % of control

CCN(CC)CCC(=O)c1ccc(OC)c2ccccc12
inactive: [10] 103 % of control | [11] 104 % of control | [12] 103 % of control

[O-][N+]1(CC[N+]2([O-])CCCCC2)CCCCC1
inactive: dose: 60.0 mg/kg/injection, schedule: Q01DX005 (ip), vehicle: saline 97 % of control | dose: 120.0 mg/kg/injection, schedule: Q01DX005 (ip), vehicle: saline 100 % of control | dose: 240.0 mg/kg/injection, schedule: Q01DX005 (ip), vehicle: saline 97 % of control

CC1OC(=O)C2=CCC(O)C(O)C2C1NC(=O)OCc1ccccc1 (stereo not drawn)
inactive: dose: 100.0 mg/kg/injection, schedule: Q01DX001 (ip), vehicle: saline with Tween-80 108 % of control | dose: 200.0 mg/kg/injection, schedule: Q01DX001 (ip), vehicle: saline with Tween-80 108 % of control | dose: 400.0 mg/kg/injection, schedule: Q01DX001 (ip), vehicle: saline with Tween-80 101 % of control

c1ccc2c(c1)Cc1c(-c3ccncc3)n[nH]c1-2
inactive: dose: 25.0 mg/kg/injection, schedule: Q04DX003 (ip), vehicle: saline with Tween-80 100 % of control | dose: 50.0 mg/kg/injection, schedule: Q04DX003 (ip), vehicle: saline with Tween-80 98 % of control | dose: 100.0 mg/kg/injection, schedule: Q04DX003 (ip), vehicle: saline with Tween-80 94 % of control | dose: 200.0 mg/kg/injection, schedule: Q04DX003 (ip), vehicle: saline with Tween-80 94 % of control

Cc1ccccc1N(C=O)c1ccccc1C
inactive: dose: 100.0 mg/kg/injection, schedule: Q01DX009 (ip), vehicle: saline 106 % of control | dose: 200.0 mg/kg/injection, schedule: Q01DX009 (ip), vehicle: saline 93 % of control | dose: 400.0 mg/kg/injection, schedule: Q01DX009 (ip), vehicle: saline 98 % of control

O=C1CC([Se]c2ccccc2)C(=O)N1 (stereo not drawn)
inactive: dose: 6.25 mg/kg/injection, schedule: Q04DX003 (ip), vehicle: Klucel (hydroxypropylcellulose) (HPC) 99 % of control | dose: 12.5 mg/kg/injection, schedule: Q04DX003 (ip), vehicle: Klucel (hydroxypropylcellulose) (HPC) 102 % of control and 104 % of control | dose: 25.0 mg/kg/injection, schedule: Q04DX003 (ip), vehicle: Klucel (hydroxypropylcellulose) (HPC) 100 % of control and 107 % of control | dose: 50.0 mg/kg/injection, schedule: Q04DX003 (ip), vehicle: Klucel (hydroxypropylcellulose) (HPC) 100 % of control and 105 % of control

CC(C)C(CO)NC(=O)c1ccccc1 (stereo not drawn)
inactive: [13] 95 % of control | [14] 96 % of control | [15] 95 % of control

N#CC(C#N)=C(O)/C(=C/c1ccc(Cl)c(Cl)c1)NC(=O)c1ccccc1
inactive: [10] 88 % of control | [11] 88 % of control | [12] 104 % of control

CCN(C)c1cc(=O)c2ccc3ccccc3c2o1
inactive: dose: 50.0 mg/kg/injection, schedule: Q01DX009 (ip), vehicle: saline with Tween-80 101 % of control | [9] 105 % of control

CN1CCN(C)C(=O)C1=O
inactive: dose: 12.5 mg/kg/injection, schedule: Q04DX003 (ip), vehicle: suspension in saline 108 % of control | dose: 25.0 mg/kg/injection, schedule: Q04DX003 (ip), vehicle: suspension in saline 115 % of control | dose: 50.0 mg/kg/injection, schedule: Q04DX003 (ip), vehicle: suspension in saline 110 % of control

Cc1cc(N)nc(=O)n1COCCOCc1ccccc1
inactive: [13] 103 % of control | [14] 106 % of control | [15] 98 % of control

CN(C)c1ccc(C(=O)C2(Cl)CCCCC2)cc1
inactive: dose: 100.0 mg/kg/injection, schedule: Q01DX001 (ip), vehicle: Klucel (hydroxypropylcellulose) (HPC) 97 % of control | dose: 200.0 mg/kg/injection, schedule: Q01DX001 (ip), vehicle: Klucel (hydroxypropylcellulose) (HPC) 100 % of control | dose: 400.0 mg/kg/injection, schedule: Q01DX001 (ip), vehicle: Klucel (hydroxypropylcellulose) (HPC) 96 % of control

O=C1C=CC(Nc2ccc(Cl)c(Cl)c2)C1Nc1ccc(Cl)c(Cl)c1 (stereo not drawn)
inactive: [16] 100 % of control | [17] 93 % of control | [18] 93 % of control

O=C1c2ccccc2C(=O)c2c3c(cc([N+](=O)[O-])c21)OCO3
inactive: [16] 100 % of control | [17] 89 % of control | [18] 87 % of control

COc1ccc(/C=C/c2nc(Nc3ccc(OC)cc3)c3ccccc3n2)cc1
inactive: dose: 50.0 mg/kg/injection, schedule: Q01DX009 (ip), vehicle: acetone 98 % of control | dose: 100.0 mg/kg/injection, schedule: Q01DX009 (ip), vehicle: acetone 91 % of control | dose: 200.0 mg/kg/injection, schedule: Q01DX009 (ip), vehicle: acetone 99 % of control

C=C1C(=O)O[C@@H]2[C@H]3C(C)=CC[C@H]3C(C)=CC[C@@H]12
inactive: dose: 100.0 mg/kg/injection, schedule: Q01DX001 (ip), vehicle: saline 106 % of control | dose: 200.0 mg/kg/injection, schedule: Q01DX001 (ip), vehicle: saline 103 % of control | dose: 400.0 mg/kg/injection, schedule: Q01DX001 (ip), vehicle: saline 107 % of control

C#CC(=O)OC
inactive: dose: 25.0 mg/kg/injection, schedule: Q04DX002 (ip), vehicle: saline 102 % of control | dose: 50.0 mg/kg/injection, schedule: Q04DX002 (ip), vehicle: saline 98 % of control | dose: 100.0 mg/kg/injection, schedule: Q04DX002 (ip), vehicle: saline 106 % of control

CC12CCC/C(=N\NC(N)=S)C1C(=O)NC(=O)C2 (stereo not drawn)
inactive: [1] 99 % of control | [2] 96 % of control | [3] 97 % of control
